Data reported in publication PMC9821969, “Metabolomic Strategy to Characterize the Profile of Secondary Metabolites in Aspergillus aculeatus DL1011 Regulated by Chemical Epigenetic Agents” (Molecules, 2022).

Target: T1, SHP1 (Homo sapiens, UniProt P29350)
T1 construct: gene PTPN6; domain protein
T1 sequence (P29350 244-515 limits assumed): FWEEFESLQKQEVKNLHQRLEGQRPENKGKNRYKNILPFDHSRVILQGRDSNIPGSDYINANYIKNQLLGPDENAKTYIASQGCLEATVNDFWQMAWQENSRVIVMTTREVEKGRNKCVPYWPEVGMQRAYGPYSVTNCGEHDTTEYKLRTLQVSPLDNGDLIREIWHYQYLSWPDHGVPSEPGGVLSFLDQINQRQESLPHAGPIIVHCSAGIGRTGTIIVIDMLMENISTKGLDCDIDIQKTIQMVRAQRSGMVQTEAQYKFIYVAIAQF
Assay: pNPP phosphatase assay, absorbance at […] nm
Format: biochemical

For `CO[C@@]1(C)[C@H](O)C(=O)C(C)=C(O)[C@@H]1Oc1c(C)c(O)cc(C)c1C(=O)O` [S10, Roseopurpurin A], which IC50 is on record?
Its IC50 is 16 µM.
